{"source": "patent US20230248741A1", "about": "“Compositions and Methods for Lowering Triglycerides in a Subject with Reduced Kidney Function and Diabetes Mellitus” (Amarin Pharmaceuticals Ireland Limited, priority 2018, published 2023)", "system": "patients with chronic kidney disease (eGFR <60 mL/min/1.73 m^2 for ≥3 months)", "test": "ANCHOR post-hoc (CKD): renal parameters and TEAEs", "assay_type": "in vivo, human", "experimental": "CVD-related (e.g., atherogenic) parameters were analyzed in a post-hoc study of 55 patients from the multi-center, placebo-controlled, randomized double-blind, 12-week study described in Example 1. These 55 patients have chronic kidney disease (e.g., eGFR<60 mL/min/1.73 m^2 for ≥3 months). There was no lower limit of eGFR specified. Analysis: The median difference in percent change from baseline between 4 g/day of E-EPA and placebo for the primary efficacy variable and additional assessments were estimated using the Hodges-Lehmann method (P values from the Wilcoxon rank-sum test for treatment comparisons). Using the Hodges-Lehmann method, departures from normal distribution were observed; for normally distributed parameters, an analysis of covariance model was used with least squares (LS) means and standard errors (SE). Missing values were imputed using the last-observation-carried-forward method. For all post hoc analyses, the alpha for statistical significance was 0.05.", "key": {"[1]": {"details": "4 g/day group, before treatment"}}}
{"molecule": "CC/C=C\\C/C=C\\C/C=C\\C/C=C\\C/C=C\\CCCC(=O)OCC", "note": "[E-EPA, ethyl eicosapentaenoate]", "values": [{"measurement": "BUN at week 12, median (IQR)", "setting": "4 g/day", "value": "22.5 (11.0) mg/dL"}, {"measurement": "Nausea, nasopharyngitis, and arthralgia", "setting": "4 g/day", "value": "not reported by any patients"}, {"measurement": "eGFR at week 12, median (IQR)", "setting": "4 g/day", "value": "56.0 (12.9) mL/min/1.73 m^2"}, {"measurement": "serum creatinine at week 12, median (IQR)", "setting": "4 g/day", "value": "1.2 (0.4) mg/dL"}, {"measurement": "serum creatinine, BUN, or eGFR from baseline to week 12 compared to placebo", "setting": "4 g/day", "value": "did not produce significant changes"}, {"measurement": "BUN at baseline, median (IQR)", "setting": "[1]", "value": "24.5 (12.0) mg/dL"}, {"measurement": "eGFR at baseline, median (IQR)", "setting": "[1]", "value": "55.0 (13.8) mL/min/1.73 m^2"}, {"measurement": "serum creatinine at baseline, median (IQR)", "setting": "[1]", "value": "1.2 (0.3) mg/dL"}, {"measurement": "patients with diarrhea", "setting": "4 g/day, 2 patients", "value": 10.5, "unit": "%"}, {"measurement": "patients with TEAE", "setting": "4 g/day, 11 of 19 patients", "value": 57.9, "unit": "%"}, {"measurement": "serum albumin", "setting": "4 g/day, 12 weeks", "value": "no significant median changes from baseline"}, {"measurement": "eGFR, median difference in change from baseline compared with placebo", "setting": "4 g/day, P=0.1983", "value": "−7.8", "unit": "%"}, {"measurement": "serum creatinine, median difference in change from baseline compared with placebo", "setting": "4 g/day, P=0.1983", "value": 6.5, "unit": "%"}, {"measurement": "BUN, median difference in change from baseline compared with placebo", "setting": "4 g/day, P=0.5291", "value": 5.5, "unit": "%"}, {"measurement": "BUN, median difference in change from baseline compared with placebo", "setting": "4 g/day, P=0.5471", "value": 1.0, "unit": "mg/dL"}]}
